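The compound was tested at five concentrations on cells cultured in 96-well plates, with a 48-hour exposure period. At the TGI there is no net growth.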 Where a SMILES comes first, the peptide text is derived from it. The star is where a group is joined. Boc = CC(C)(C)OC(=O)*; Bn = c1ccc(C*)cc1
Key:
Assay in all cases: growth of human tumour cells (NCI), 48 h
[1] = system: COLO 205 colon
[2] = system: DU-145 prostate
[3] = system: HOP-62 NSCLC
[4] = system: HOP-92 NSCLC
[5] = system: K-562 leukemia
[6] = system: OVCAR-4 ovarian
[7] = system: OVCAR-8 ovarian
[8] = system: PC-3 prostate
[9] = system: RPMI-8226 leukemia
[10] = system: SF-295 CNS
[11] = system: SK-MEL-5 melanoma
[12] = system: TK-10 renal
[13] = system: EKVX NSCLC
[14] = system: HCC-2998 colon

Row | SMILES | TGI [1] | TGI [2] | TGI [3] | TGI [4] | TGI [5] | TGI [6] | TGI [7] | TGI [8] | TGI [9] | TGI [10] | TGI [11] | TGI [12] | TGI [13] | TGI [14]
1 | Cc1ccc(S(=O)(=O)NC(=O)NCC(N)=O)cc1 | > 100 µM | > 100 µM | > 100 µM | > 100 µM | > 100 µM | > 100 µM | > 100 µM | > 100 µM | > 100 µM | > 100 µM | > 100 µM | > 100 µM |  | 
2 | O=c1[nH]c2cc3[nH]c(=O)c(=O)[nH]c3cc2[nH]c1=O | > 100 µM | > 100 µM |  |  | > 100 µM |  | > 100 µM | > 100 µM | > 100 µM | > 100 µM | > 100 µM | > 100 µM | > 100 µM | > 100 µM
3 | Cc1ccc2nc(-c3ccc(-c4nc5ccc(C)cc5o4)c(O)c3)oc2c1 | > 100 µM | > 100 µM | > 100 µM | > 100 µM | > 100 µM |  | > 100 µM | > 100 µM | > 100 µM |  | > 100 µM | > 100 µM |  | > 100 µM
4 | C/C(=C(/C)c1cc[n+](C)cc1)c1cc[n+](C)cc1 | > 75 µM |  | > 75 µM | > 75 µM | > 75 µM | > 75 µM | > 75 µM |  | > 75 µM | > 75 µM | > 75 µM | > 75 µM | > 75 µM | 
5 | Brc1ccc(N=Nc2ccc3ccccc3n2)cc1 | > 100 µM | > 100 µM |  | > 100 µM |  |  | > 100 µM | > 100 µM | > 100 µM | > 100 µM | > 100 µM | 56.6 µM | > 100 µM | 
6 | C/C(CC(=O)Nc1ccccc1)=N\NC(N)=S | > 100 µM |  | > 100 µM | > 100 µM | > 100 µM |  | > 100 µM |  | > 100 µM | > 100 µM | > 100 µM | > 100 µM | > 100 µM | > 100 µM
7 | O=C(/C=N/O)Nc1ccc(Cl)c(I)c1 | 31.7 µM |  | 70.7 µM |  | > 100 µM | > 100 µM | > 100 µM |  | 77.8 µM | 94.8 µM | 35.2 µM | > 100 µM | 63.9 µM | 33.7 µM
8 | Cc1cc(C)nc(NS(=O)(=O)c2ccc(Nc3nnc(/C=C/c4c(O)ccc5ccccc45)c(=O)n3N)cc2)n1 |  | > 100 µM | > 100 µM | > 100 µM | > 100 µM | 85.2 µM | 87.2 µM |  | > 100 µM | > 100 µM |  |  | 78.5 µM | 
9 | OCCSCC/C(=N\N=C(/CCSCCO)c1ccccc1)c1ccccc1 | > 100 µM |  | > 100 µM | > 100 µM | > 100 µM | > 100 µM | > 100 µM |  | > 100 µM | > 100 µM | > 100 µM | > 100 µM | > 100 µM | > 100 µM
10 | COC(=O)C(CC(C)C)NC(=O)CNC(=O)C(Cc1ccc(OCc2ccccc2)cc1)NC(=O)C(COCc1ccccc1)NC(=O)OC(C)(C)C (stereo unspecified) (Boc-S(Bn)Y(Bn)GL-OMe; configuration not given here) | > 100 µM | > 100 µM | > 100 µM | > 100 µM | > 100 µM | > 100 µM | > 100 µM | > 100 µM | > 100 µM | > 100 µM | > 100 µM | > 100 µM | > 100 µM | 

Reference: PubChem BioAssay (NCI)
